Consider 16 compounds from US9125913B2, “Bcl-2-selective apoptosis-inducing agents for the treatment of cancer and immune diseases” (AbbVie Inc., priority 2008, dated 2015).

Structures are written as SMILES. Where only a bound is given, the exact number is not on record here.

In one test the test system is GST-Bcl-2. As to the kind of experiment: TR-FRET binding assay, Bcl-2. The conditions noted are these: TR-FRET Ki values. The method, boiled down: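 Compounds serially diluted in DMSO from 50 μM (2× starting concentration, 10% DMSO), mixed with GST-tagged protein, F-Bak peptide probe and Tb-labeled antibody, incubated 3 h at room temperature.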
For a further test, the system named is FL5.12/Bcl-2 cells. As to the kind of experiment: FL5.12/Bcl-2 cell viability assay. To be noted: ratio of canine platelet EC50 to FL5.12/Bcl-2 EC50. Type of test: cell-based, murine. From the text:
FL5.12 is an IL-3 dependent prolymphocytic murine cell line that undergoes apoptosis upon IL-3 withdrawal as a result of the upregulation of pro-apoptotic Bcl-2 proteins such as Bim and Puma. Stable overexpression of anti-apoptotic Bcl-2 protein (FL5.12/Bcl-2) protects against apoptosis induced by IL-3 withdrawal by sequestration of Bim and Puma. […] The ability of compounds to kill FL5.12/Bcl-2 cells upon IL-3 withdrawal is a direct measure of the compounds' ability to inhibit anti-apoptotic Bcl-2 protein function.
Wild type FL5.12/Bcl-2 overexpressing stable transfectants were cultured in RPMI-1640 supplemented with 2 mM L-glutamine, 10% FBS, 1 mM sodium pyruvate, 2 mM HEPES, 1% penicillin/streptomycin (Invitrogen), 57 μM β-ME, and 10% WEHI-3B conditioned medium (source of IL-3) and maintained at 37° C. containing 5% CO2. 1×10^6 cells/ml were washed 1×PBS and resuspended in medium not supplemented with 10% WEHI-3B for 48 hrs prior to cytotoxicity assays. Cells were then treated for an additional 24 hrs in the presence of various concentrations of the indicated compounds. Cell viability was assessed by CellTitre Glo assay (Promega Corp.) according to the manufacturer's recommendations.

As for `O=C(NS(=O)(=O)c1ccc(NCC2CCOCC2)c([N+](=O)[O-])c1)c1ccc(N2CCN(Cc3cc(OCCN4CCOCC4)ccc3-c3ccc(Cl)cc3)CC2)cc1Oc1cccc2[nH]ccc12` [Example 130, 4-(4-{[4′-chloro-4-(2-morpholin-4-ylethoxy)-1,1′-biphenyl-2-yl]methyl}piperazin-1-yl)-2-(1H-indol-4-yloxy)-N-({3-nitro-4-[(tetrahydro-2H-pyran-4-ylmethyl)amino]phenyl}sulfonyl)benzamide], the “Binding selectivity ratio (Bcl-XL Ki/Bcl-2 Ki)” value (shortened to “Binding selectivity ratio”) in the test with GST-Bcl-2 is more than 4714.3. Further, the “Selectivity Ratio (Platelet EC50/FL5.12/Bcl-2 EC50)” value with FL5.12/Bcl-2 cells was more than 254.

With `CN1CCC(Nc2ccc(S(=O)(=O)NC(=O)c3ccc(N4CCN(Cc5ccccc5-c5ccc(Cl)cc5)CC4)cc3Oc3ccccc3)cc2[N+](=O)[O-])CC1` [Example 89, 4-{4-[(4′-chloro-1,1′-biphenyl-2-yl)methyl]piperazin-1-yl}-N-({4-[(1-methylpiperidin-4-yl)amino]-3-nitrophenyl}sulfonyl)-2-phenoxybenzamide], the “Binding selectivity ratio” value in the test on GST-Bcl-2 is 57.8. For the same compound, in the test on FL5.12/Bcl-2 cells, the “Selectivity Ratio (Platelet EC50/FL5.12/Bcl-2 EC50)” value stood at 495.

For the compound `CN(C)CCCNc1ccc(S(=O)(=O)NC(=O)c2ccc(N3CCN(CC4=C(c5ccc(Cl)cc5)CC(C)(C)CC4)CC3)cc2Oc2ccc3[nH]ccc3c2)cc1C#N` [Example 172, 4-(4-{[2-(4-chlorophenyl)-4,4-dimethylcyclohex-1-en-1-yl]methyl}piperazin-1-yl)-N-[(3-cyano-4-{[3-(dimethylamino)propyl]amino}phenyl)sulfonyl]-2-(1H-indol-5-yloxy)benzamide], the “Binding selectivity ratio” value in the test on GST-Bcl-2 was 32.1. For the same compound, the “Selectivity Ratio (Platelet EC50/FL5.12/Bcl-2 EC50)” value in the test on FL5.12/Bcl-2 cells is more than 257.

As to `CC1(C)CCC(CN2CCN(c3ccc(C(=O)NS(=O)(=O)c4ccc(NCCCN5CCCC5)c([N+](=O)[O-])c4)c(Oc4cccc5[nH]ccc45)c3)CC2)=C(c2ccc(OC(F)(F)F)cc2)C1` [Example 70, 4-[4-({4,4-dimethyl-2-[4-(trifluoromethoxy)phenyl]cyclohex-1-en-1-yl}methyl)piperazin-1-yl]-2-(1H-indol-4-yloxy)-N-({3-nitro-4-[(3-pyrrolidin-1-ylpropyl)amino]phenyl}sulfonyl)benzamide], the “Binding selectivity ratio” value in the test with GST-Bcl-2 turned out to be 62.4. Moreover, the “Selectivity Ratio (Platelet EC50/FL5.12/Bcl-2 EC50)” value in the test on FL5.12/Bcl-2 cells was more than 450.

As for `CC1(C)CCC(CN2CCN(c3ccc(C(=O)NS(=O)(=O)c4ccc(NCCCN5CCCC5)c([N+](=O)[O-])c4)c(Oc4cccc5[nH]ccc45)c3)CC2)=C(c2ccc(F)cc2)C1` [Example 73, 4-(4-{[2-(4-fluorophenyl)-4,4-dimethylcyclohex-1-en-1-yl]methyl}piperazin-1-yl)-2-(1H-indol-4-yloxy)-N-({3-nitro-4-[(3-pyrrolidin-1-ylpropyl)amino]phenyl}sulfonyl)benzamide], in the test on GST-Bcl-2, the “Binding selectivity ratio” value is recorded as 9.9. Further, in the test on FL5.12/Bcl-2 cells, the “Selectivity Ratio (Platelet EC50/FL5.12/Bcl-2 EC50)” value came to 166.

For `CN1CCN(CCCNc2ccc(S(=O)(=O)NC(=O)c3ccc(N4CCN(Cc5ccccc5-c5ccc(Cl)cc5)CC4)cc3Oc3ccccc3)cc2[N+](=O)[O-])CC1` [Example 86, 4-{4-[(4′-chloro-1,1′-biphenyl-2-yl)methyl]piperazin-1-yl}-N-[(4-{[3-(4-methylpiperazin-1-yl)propyl]amino}-3-nitrophenyl)sulfonyl]-2-phenoxybenzamide], the “Binding selectivity ratio” value in the test on GST-Bcl-2 was found to be 49.6. Besides, the “Selectivity Ratio (Platelet EC50/FL5.12/Bcl-2 EC50)” value in the test with FL5.12/Bcl-2 cells turned out to be 489.

`CN(C)CCCOc1ccc(S(=O)(=O)NC(=O)c2ccc(N3CCN(Cc4ccccc4-c4ccc(Cl)cc4)CC3)cc2Oc2ccccc2)cc1[N+](=O)[O-]` [Example 94, 4-{4-[(4′-chloro-1,1′-biphenyl-2-yl)methyl]piperazin-1-yl}-N-({4-[3-(dimethylamino)propoxy]-3-nitrophenyl}sulfonyl)-2-phenoxybenzamide]: the “Binding selectivity ratio” value in the test with GST-Bcl-2 was 33.1. Moreover, in the test with FL5.12/Bcl-2 cells, the “Selectivity Ratio (Platelet EC50/FL5.12/Bcl-2 EC50)” value was 590.

Turning to `CC1(C)CCC(CN2CCN(c3ccc(C(=O)NS(=O)(=O)c4ccc(NCCCN5CCCC5)c([N+](=O)[O-])c4)c(Oc4cccc5[nH]ccc45)c3)CC2)=C(c2cccc(F)c2)C1` [Example 72, 4-(4-{[2-(3-fluorophenyl)-4,4-dimethylcyclohex-1-en-1-yl]methyl}piperazin-1-yl)-2-(1H-indol-4-yloxy)-N-({3-nitro-4-[(3-pyrrolidin-1-ylpropyl)amino]phenyl}sulfonyl)benzamide], the “Binding selectivity ratio” value in the test on GST-Bcl-2 was 17.3. For the same compound, the “Selectivity Ratio (Platelet EC50/FL5.12/Bcl-2 EC50)” value with FL5.12/Bcl-2 cells is on record as more than 325.

As for `CN(C)CCOc1ccc(-c2ccc(Cl)cc2)c(CN2CCN(c3ccc(C(=O)NS(=O)(=O)c4ccc(NCC5CCOCC5)c([N+](=O)[O-])c4)c(Oc4cccc5[nH]ccc45)c3)CC2)c1` [Example 125, 4-[4-({4′-chloro-4-[2-(dimethylamino)ethoxy]-1,1′-biphenyl-2-yl}methyl)piperazin-1-yl]-2-(1H-indol-4-yloxy)-N-({3-nitro-4-[(tetrahydro-2H-pyran-4-ylmethyl)amino]phenyl}sulfonyl)benzamide], the “Binding selectivity ratio” value with GST-Bcl-2 was determined as 3879. Moreover, the “Selectivity Ratio (Platelet EC50/FL5.12/Bcl-2 EC50)” value with FL5.12/Bcl-2 cells was determined as 4719.

As to `CC1(C)CCC(CN2CCN(c3ccc(C(=O)NS(=O)(=O)c4ccc(NCCCN5CCOCC5)c([N+](=O)[O-])c4)c(Oc4ccccc4)c3)CC2)=C(c2ccc(Cl)cc2)C1` [Example 18, 4-(4-{[2-(4-chlorophenyl)-4,4-dimethylcyclohex-1-en-1-yl]methyl}piperazin-1-yl)-N-({4-[(3-morpholin-4-ylpropyl)amino]-3-nitrophenyl}sulfonyl)-2-phenoxybenzamide], in the test on GST-Bcl-2, the “Binding selectivity ratio” value is reported as 34.2. Further, in the test on FL5.12/Bcl-2 cells, the “Selectivity Ratio (Platelet EC50/FL5.12/Bcl-2 EC50)” value amounted to 241.

With `CN1CCC(CNc2ccc(S(=O)(=O)NC(=O)c3ccc(N4CCN(CC5=C(c6ccc(Cl)cc6)CC(C)(C)CC5)CC4)cc3Oc3ccc4[nH]ccc4c3)cc2[N+](=O)[O-])(N(C)C)CC1` [Example 109, 4-(4-{[2-(4-chlorophenyl)-4,4-dimethylcyclohex-1-en-1-yl]methyl}piperazin-1-yl)-N-{[4-({[4-(dimethylamino)-1-methylpiperidin-4-yl]methyl}amino)-3-nitrophenyl]sulfonyl}-2-(1H-indol-5-yloxy)benzamide], in the test on GST-Bcl-2, the “Binding selectivity ratio” value is reported as more than 4099.4. Further, the “Selectivity Ratio (Platelet EC50/FL5.12/Bcl-2 EC50)” value in the test on FL5.12/Bcl-2 cells is recorded as more than 1404.

With `CN1CCC(Nc2ccc(S(=O)(=O)NC(=O)c3ccc(N4CCN(CC5=C(c6ccc(Cl)cc6)CCCC5)CC4)cc3Oc3cccc4[nH]ccc34)cc2[N+](=O)[O-])CC1` [Example 149, 4-(4-{[2-(4-chlorophenyl)cyclohex-1-en-1-yl]methyl}piperazin-1-yl)-2-(1H-indol-4-yloxy)-N-({4-[(1-methylpiperidin-4-yl)amino]-3-nitrophenyl}sulfonyl)benzamide], in the test on GST-Bcl-2, the “Binding selectivity ratio” value was more than 2490.6. Besides, the “Selectivity Ratio (Platelet EC50/FL5.12/Bcl-2 EC50)” value in the test with FL5.12/Bcl-2 cells is listed as 1298.

Regarding `CN1CCC(CNc2ccc(S(=O)(=O)NC(=O)c3ccc(N4CCN(CC5=C(c6ccc(Cl)cc6)CC(C)(C)CC5)CC4)cc3Oc3cccc4[nH]ccc34)cc2[N+](=O)[O-])CC1` [Example 105, 4-(4-{[2-(4-chlorophenyl)-4,4-dimethylcyclohex-1-en-1-yl]methyl}piperazin-1-yl)-2-(1H-indol-4-yloxy)-N-[(4-{[(1-methylpiperidin-4-yl)methyl]amino}-3-nitrophenyl)sulfonyl]benzamide], the “Binding selectivity ratio” value with GST-Bcl-2 was 62.7. Also, the “Selectivity Ratio (Platelet EC50/FL5.12/Bcl-2 EC50)” value in the test on FL5.12/Bcl-2 cells is on record as 2262.

In the case of `O=C(NS(=O)(=O)c1ccc(NCC2CCOCC2)c([N+](=O)[O-])c1)c1ccc(N2CCN(Cc3cc(OCCN4CCCC4)ccc3-c3ccc(Cl)cc3)CC2)cc1Oc1ccccc1` [Example 138, 4-(4-{[4′-chloro-4-(2-pyrrolidin-1-ylethoxy)-1,1′-biphenyl-2-yl]methyl}piperazin-1-yl)-N-({3-nitro-4-[(tetrahydro-2H-pyran-4-ylmethyl)amino]phenyl}sulfonyl)-2-phenoxybenzamide], in the test with GST-Bcl-2, the “Binding selectivity ratio” value is on record as 574.9. The “Selectivity Ratio (Platelet EC50/FL5.12/Bcl-2 EC50)” value in the test with FL5.12/Bcl-2 cells worked out at 616.

Consider `O=C(NS(=O)(=O)c1ccc(NCC2CCOCC2)c([N+](=O)[O-])c1)c1ccc(N2CCN(Cc3ccccc3-c3ccc(Cl)cc3)CC2)cc1Oc1ccc2c(c1)CCN2` [Example 140, 4-{4-[(4′-chloro-1,1′-biphenyl-2-yl)methyl]piperazin-1-yl}-2-(2,3-dihydro-1H-indol-5-yloxy)-N-({3-nitro-4-[(tetrahydro-2H-pyran-4-ylmethyl)amino]phenyl}sulfonyl)benzamide], for which the “Binding selectivity ratio” value in the test with GST-Bcl-2 is more than 139.7. Besides, in the test on FL5.12/Bcl-2 cells, the “Selectivity Ratio (Platelet EC50/FL5.12/Bcl-2 EC50)” value was more than 23.

With `CN(C)CCOc1ccc(-c2ccc(Cl)cc2)c(CN2CCN(c3ccc(C(=O)NS(=O)(=O)c4ccc(NCCCN5CCCC5)c([N+](=O)[O-])c4)c(Oc4ccccc4)c3)CC2)c1` [Example 121, 4-[4-({4′-chloro-4-[2-(dimethylamino)ethoxy]-1,1′-biphenyl-2-yl}methyl)piperazin-1-yl]-N-({3-nitro-4-[(3-pyrrolidin-1-ylpropyl)amino]phenyl}sulfonyl)-2-phenoxybenzamide], in the test with GST-Bcl-2, the “Binding selectivity ratio” value came to 388. Further, in the test on FL5.12/Bcl-2 cells, the “Selectivity Ratio (Platelet EC50/FL5.12/Bcl-2 EC50)” value was 8.
